Assay results published in PMC11375437, “Selective labelling of GBA2 in cells with fluorescent β-D-arabinofuranosyl cyclitol aziridines” (Chemical Science, 2024).

Tested on: GBA2
Experiment: Labelling of GBA2 orthologue in zebrafish larvae homogenates
Format: biochemical, zebrafish (Danio rerio)
Conditions: 1 h at 37 °C; ABP 3 and 7 at 1 μM, ABP 4 and 5 at 2.5 μM
Procedure: GBA2 orthologs are highly conserved among different species. […] The labelling capability of β-D-Araf aziridine ABPs toward GBA2 orthologs in these species was therefore evaluated. Homogenates of zebrafish larvae or mice brain homogenates were incubated with β-D-Araf ABPs 3–5 or broad-spectrum ABP 7 (Fig. 4).
Fig. 4 Fluorescent gel images of selective labelling of GBA2 orthologues by β-D-Araf aziridine ABPs in different species. Cyclophellitol-aziridine ABP 7 (1 μM) and β-D-Araf ABPs (ABP 3 at 1 μM and ABP 4 and 5 at 2.5 μM) were incubated with homogenates of zebrafish (15 μg total protein) and mice brain (15 μg total protein) for 1 h at 37 °C. […]
were transferred to nitrocellulose membrane for western blotting. Ponceau S staining was used to show total protein loading. […]
2.12 Reactivity of β-D-Araf aziridines towards GBA2 orthologue in other species β-D-Araf aziridine ABP 3-5 or ABP 7 was incubated with homogenates of zebrafish (Danio rerio) larvae or mice brain for 1 h at 37 °C. […] The zebrafish homogenates were passed through a desalting column (in the same way as described for the irreversibility evaluation above) to remove interference from biological pigments when scanning at λEX 473 nm and λEM ≥ 510 nm for BODIPY green fluorescence. […]

SMILES: CN1/C(=C/C=C/C=C/C2=[N+](CCCCCC(=O)NCc3cn(CCCCCCCCN4[C@@H]5[C@H](CO)[C@@H](O)[C@H](O)[C@@H](O)[C@@H]54)nn3)c3ccccc3C2(C)C)C(C)(C)c2ccccc21 (stereo partly shown) [ABP 7]
- Labelling selectivity in zebrafish larvae homogenates: show cross-reactivity towards GBA1
